Drawing on patent US10335409B2 (priority 2012, dated 2019), this text covers EC50 and Ki for seven compounds.

One may read the EC50 as the concentration needed to bring the measured effect to its halfway point. The Ki is the dissociation constant of the complex between target and ligand, obtained from inhibition or displacement. A lower Ki goes with higher affinity.

Read-outs that look alike come from different tables or passages of the source.

The subject of test [1] is genotype 3a (S52) wild type transient HCV replicon in Huh-7-derived cells. Briefly: Transient-transfected HCV replicon EC50, genotype 3a wild type. Format: cell-based, hepatitis C virus. The settings on record: transient-transfected replicon genotype 3a wild type, 72 h, read-out: EC50 3A WT.
In test [2] the test system is genotype 3a (S52) stable HCV replicon in Huh-7-derived cells. The experiment in a line: Stable subgenomic HCV replicon EC50, genotype 3a (Renilla luciferase). Format: cell-based, hepatitis C virus. The settings on record: 72 h, read-out: EC50 3A RLUC. (In general: A replicon is a self-replicating genome or part of one, used to study replication in cells.)
Test [3] deals with genotype 4a (ED43) stable HCV replicon in Huh-7-derived cells. The experiment in a line: Stable subgenomic HCV replicon EC50, genotype 4a (Renilla luciferase). Type of test: cell-based, hepatitis C virus. The following applies: 72 h, read-out: EC50 4A RLUC. The procedure, abridged:
(§1)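 Compounds, three-fold diluted, were applied to Huh-7-derived cells harbouring luciferase replicons (genotype 1a H77, 1b Con1, 2a JFH-1, 4a ED43, with strain-specific adaptive mutations). Seventy-two hours later, intracellular replication was gauged by Renilla luciferase activity and EC50 derived by regression.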

Test [4] concerns genotype 1b NS3/4a protease inhibitor resistant variant D168A transient HCV replicon in Huh-7-derived cells. Briefly: Transient-transfected HCV replicon EC50, genotype 1b D168A. Type of test: cell-based, hepatitis C virus. The settings on record: 72 h.
The target in test [5] is HCV NS3 protease domain genotype 3a (Hepatitis C virus genotype 3a, UniProt Q81258). The experiment in a line: Ki determination, NS3 protease genotype 3a (fluorogenic depsipeptide substrate). Format: biochemical. The following applies: 200 pM enzyme, NS4A peptide. The procedure, abridged: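 The NS3 protease domain (aa 1-181) with 20 μM NS4A peptide was used at 50 pM with 4 μM substrate (1b) or at 200 pM with 2 μM substrate (3a). Inhibitors (100 nM-5 pM) were pre-incubated 1 h at room temperature in HEPES/glycerol/DTT buffer with 10% DMSO. Steady-state rates (90-120 min) gave Ki via the Morrison equation, corrected for active enzyme and [S]/Km.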
Chain of HCV NS3 protease domain genotype 3a (Q81258 whole entry, looked up, the tested form may be a part): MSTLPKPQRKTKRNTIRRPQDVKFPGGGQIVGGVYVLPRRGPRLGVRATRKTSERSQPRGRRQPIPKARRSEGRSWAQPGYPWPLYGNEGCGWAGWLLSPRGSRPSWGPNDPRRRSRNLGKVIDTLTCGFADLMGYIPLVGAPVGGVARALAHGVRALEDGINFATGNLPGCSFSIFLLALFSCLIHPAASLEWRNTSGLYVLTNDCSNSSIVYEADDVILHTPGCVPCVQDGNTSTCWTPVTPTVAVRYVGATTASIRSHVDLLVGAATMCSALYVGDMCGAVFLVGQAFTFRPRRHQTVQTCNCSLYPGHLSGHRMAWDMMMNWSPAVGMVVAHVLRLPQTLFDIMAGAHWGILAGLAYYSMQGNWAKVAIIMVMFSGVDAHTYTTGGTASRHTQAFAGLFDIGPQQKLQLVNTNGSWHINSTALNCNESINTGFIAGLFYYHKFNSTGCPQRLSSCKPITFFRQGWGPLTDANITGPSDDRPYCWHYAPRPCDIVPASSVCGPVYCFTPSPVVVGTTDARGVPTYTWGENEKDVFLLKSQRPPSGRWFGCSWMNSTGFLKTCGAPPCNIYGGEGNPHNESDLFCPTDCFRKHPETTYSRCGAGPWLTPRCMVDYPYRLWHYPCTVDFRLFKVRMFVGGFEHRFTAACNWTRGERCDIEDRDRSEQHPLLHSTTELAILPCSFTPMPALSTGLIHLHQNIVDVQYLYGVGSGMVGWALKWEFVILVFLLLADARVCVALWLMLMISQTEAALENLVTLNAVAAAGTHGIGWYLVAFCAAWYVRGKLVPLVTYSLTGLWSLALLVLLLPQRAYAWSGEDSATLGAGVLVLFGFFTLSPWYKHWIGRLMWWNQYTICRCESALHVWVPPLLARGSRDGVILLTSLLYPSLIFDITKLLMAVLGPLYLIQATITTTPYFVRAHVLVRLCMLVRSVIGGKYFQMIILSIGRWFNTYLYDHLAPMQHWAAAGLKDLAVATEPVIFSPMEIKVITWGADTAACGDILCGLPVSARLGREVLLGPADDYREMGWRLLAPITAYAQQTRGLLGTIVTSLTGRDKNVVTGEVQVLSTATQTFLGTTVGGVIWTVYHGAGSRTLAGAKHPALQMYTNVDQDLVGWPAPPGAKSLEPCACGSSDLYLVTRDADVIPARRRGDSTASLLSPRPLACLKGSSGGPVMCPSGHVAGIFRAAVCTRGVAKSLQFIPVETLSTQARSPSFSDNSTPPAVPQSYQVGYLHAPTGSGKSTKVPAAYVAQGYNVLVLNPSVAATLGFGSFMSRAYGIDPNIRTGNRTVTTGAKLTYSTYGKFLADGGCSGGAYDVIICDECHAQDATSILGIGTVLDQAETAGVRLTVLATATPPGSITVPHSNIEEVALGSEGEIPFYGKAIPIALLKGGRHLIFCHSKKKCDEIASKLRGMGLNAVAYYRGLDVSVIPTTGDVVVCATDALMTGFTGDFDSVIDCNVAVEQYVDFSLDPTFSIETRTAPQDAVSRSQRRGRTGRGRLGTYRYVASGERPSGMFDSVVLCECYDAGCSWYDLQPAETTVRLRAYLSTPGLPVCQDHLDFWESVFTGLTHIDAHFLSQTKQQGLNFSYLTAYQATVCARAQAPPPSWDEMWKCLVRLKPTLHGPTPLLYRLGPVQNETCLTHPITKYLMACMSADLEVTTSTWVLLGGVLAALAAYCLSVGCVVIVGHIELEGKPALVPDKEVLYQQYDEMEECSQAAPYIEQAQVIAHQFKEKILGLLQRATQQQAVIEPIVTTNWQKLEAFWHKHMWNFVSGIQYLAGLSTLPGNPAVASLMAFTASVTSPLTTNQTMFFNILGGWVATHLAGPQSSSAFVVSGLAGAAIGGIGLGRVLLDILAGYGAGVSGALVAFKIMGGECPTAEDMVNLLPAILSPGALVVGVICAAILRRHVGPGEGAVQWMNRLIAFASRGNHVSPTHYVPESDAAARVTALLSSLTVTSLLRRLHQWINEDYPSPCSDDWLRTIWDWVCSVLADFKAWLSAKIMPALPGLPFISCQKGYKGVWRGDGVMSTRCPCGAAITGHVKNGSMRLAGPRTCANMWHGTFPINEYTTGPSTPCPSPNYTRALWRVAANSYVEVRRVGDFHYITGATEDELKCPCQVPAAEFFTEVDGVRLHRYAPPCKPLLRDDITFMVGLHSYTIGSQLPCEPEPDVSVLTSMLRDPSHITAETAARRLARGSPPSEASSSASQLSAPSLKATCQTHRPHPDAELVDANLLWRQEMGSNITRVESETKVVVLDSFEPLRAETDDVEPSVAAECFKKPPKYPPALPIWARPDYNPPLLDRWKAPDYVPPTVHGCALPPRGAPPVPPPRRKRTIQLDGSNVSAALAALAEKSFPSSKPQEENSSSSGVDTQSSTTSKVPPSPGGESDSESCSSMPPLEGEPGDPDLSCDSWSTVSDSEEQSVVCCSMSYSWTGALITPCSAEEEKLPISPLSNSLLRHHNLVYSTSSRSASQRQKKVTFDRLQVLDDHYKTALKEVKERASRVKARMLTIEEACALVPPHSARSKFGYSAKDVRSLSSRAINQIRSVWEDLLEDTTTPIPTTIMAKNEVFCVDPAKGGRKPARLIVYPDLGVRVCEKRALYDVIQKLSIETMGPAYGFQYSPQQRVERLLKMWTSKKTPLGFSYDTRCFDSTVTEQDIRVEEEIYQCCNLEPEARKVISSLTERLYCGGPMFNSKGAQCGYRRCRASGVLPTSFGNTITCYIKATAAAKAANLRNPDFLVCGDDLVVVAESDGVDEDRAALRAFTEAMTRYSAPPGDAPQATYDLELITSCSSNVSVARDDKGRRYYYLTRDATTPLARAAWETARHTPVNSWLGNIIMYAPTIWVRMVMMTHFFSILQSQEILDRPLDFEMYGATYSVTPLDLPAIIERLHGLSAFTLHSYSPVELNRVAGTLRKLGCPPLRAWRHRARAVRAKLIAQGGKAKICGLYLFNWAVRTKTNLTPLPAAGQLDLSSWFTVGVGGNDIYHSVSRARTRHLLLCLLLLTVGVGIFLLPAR

The subject of test [6] is genotype 2a (JFH-1) stable HCV replicon in Huh-7-derived cells. Briefly: Stable subgenomic HCV replicon EC50, genotype 2a (Renilla luciferase). The following applies: stable replicon genotype 2a, 72 h, read-out: EC50 2A RLUC. Type of test: cell-based, hepatitis C virus. The procedure, abridged: as §1
Test [7] deals with genotype 1b (Con1) wild type transient HCV replicon in Huh-7-derived cells. Briefly: Transient-transfected HCV replicon EC50, genotype 1b wild type. Format: cell-based, hepatitis C virus. The settings on record: 72 h, transient-transfected replicon genotype 1b wild type, read-out: EC50 1B WT.
Test [8] has as its system genotype 1a (H77) stable HCV replicon in Huh-7-derived cells. The experiment in a line: Stable subgenomic HCV replicon EC50, genotype 1a (Renilla luciferase). Type of test: cell-based, hepatitis C virus. The settings on record: stable replicon genotype 1a, 72 h, read-out: EC50 1A RLUC. The procedure, abridged: as §1
The test system of test [9] is genotype 1a (H77) wild type transient HCV replicon in Huh-7-derived cells. Briefly: Transient-transfected HCV replicon EC50, genotype 1a wild type. Format: cell-based, hepatitis C virus. The following applies: 72 h, transient-transfected replicon genotype 1a wild type, read-out: EC50 1A WT.
The subject of test [10] is genotype 1a NS3/4a protease inhibitor resistant variant R155K transient HCV replicon in Huh-7-derived cells. Briefly: Transient-transfected HCV replicon EC50, genotype 1a R155K. The settings on record: 72 h. Format: cell-based, hepatitis C virus.
Test [11] concerns genotype 1b (Con1) stable HCV replicon in Huh-7-derived cells. The experiment in a line: Stable subgenomic HCV replicon EC50, genotype 1b (Renilla luciferase). Type of test: cell-based, hepatitis C virus. The following applies: stable replicon genotype 1b, 72 h, read-out: EC50 1B RLUC. The procedure, abridged: as §1
Setting [12] is: Hepatitis C virus, read-out: EC50 1B D168A, transient-transfected replicon genotype 1b D168A resistant variant, 72 h.
Setting [13] is: Hepatitis C virus, read-out: EC50 1A R155K, transient-transfected replicon genotype 1a R155K resistant variant, 72 h.

Consider `COc1ccc2nc3c(nc2c1)O[C@H]1CN(C(=O)[C@H](C(C)(C)C)NC(=O)O[C@@H]2CC4CC(C4)[C@H]2CCCCC3)[C@H](C(=O)N[C@]2(C(=O)NS(=O)(=O)C3CC3)C[C@H]2C(F)F)[C@@H]1C` [Example 71, (4aR,8S,11S,12S,13R,25aR)-8-tert-butyl-N-[(1R,2R)-1-[(cyclopropylsulfonyl)carbamoyl]-2-(difluoromethyl)cyclopropyl]-17-methoxy-12-methyl-6,9-dioxo-2,3,4,4a,6,7,8,9,12,13,21,22,23,24,25,25a-hexadecahydro-1H,11H-1,3,10,13-dimethanoquinoxalino[2,3-k][1,10,3,6]benzodioxadiazacyclononadecine-11-carboxamide], for which the EC50 in test [1] (Hepatitis C virus) worked out at 49 nM; in test [2] (Hepatitis C virus), 160 nM; in [3] (Hepatitis C virus), 5.3 nM; in test [4] (setting [12]), 66 nM; in [6] (Hepatitis C virus), 23 nM; in [7] (Hepatitis C virus) it was 3.8 nM. Further, the EC50 in test [8] (Hepatitis C virus) is 6.5 nM; in test [9] (Hepatitis C virus) it was 9.1 nM; in test [10] (setting [13]), 30 nM; in test [11] (Hepatitis C virus), 5.3 nM. The compound also had a Ki in test [5] of 0.14 nM.

With `COc1ccc2nc3c(nc2c1)O[C@H]1CN(C(=O)[C@H](C(C)(C)C)NC(=O)O[C@@H]2CCCC[C@H]2CCCCC3(F)F)[C@H](C(=O)N[C@]2(C(=O)NS(=O)(=O)C3CC3)C[C@H]2C(F)F)[C@@H]1C` [Example 68, (4aR,8S,11 S,12S,13R,25aS)-8-tert-butyl-N-[(1R,2R)-1-[(cyclopropylsulfonyl)carbamoyl]-2-(difluoromethyl)cyclopropyl]-21,21-difluoro-17-methoxy-12-methyl-6,9-dioxo-2,3,4,4a,6,7,8,9,12,13,21,22,23,24,25,25a-hexadecahydro-1H,11H-10,13-methanoquinoxalino[2,3-k][1,10,3,6]benzodioxadiazacyclononadecine-11-carboxamide], the half-maximal effective concentration (EC50) in test [1] (Hepatitis C virus) came to 139 nM; in [2] (Hepatitis C virus), 364 nM; in test [3] (Hepatitis C virus), 9.4 nM; in [4] (setting [12]) it was 78 nM; in [6] (Hepatitis C virus), 18 nM; in test [7] (Hepatitis C virus) it was 4.4 nM. Moreover, the EC50 in test [8] (Hepatitis C virus) came to 13 nM; in [9] (Hepatitis C virus), 14 nM; in test [10] (setting [13]), 37 nM; in test [11] (Hepatitis C virus), 7.7 nM. In test [5], the Ki came out at 0.63 nM.

As to `CC[C@@H]1[C@@H]2CN(C(=O)[C@H](C(C)(C)C)NC(=O)O[C@@H]3C[C@H]3CCCCC(F)(F)c3nc4ccc(OC)cc4nc3O2)[C@@H]1C(=O)N[C@]1(C(=O)NS(=O)(=O)C2(C)CC2)C[C@H]1C(F)F` [Example 17, (1aR,5S,8S,9S,10R,22aR)-5-tert-butyl-N-[(1R,2R)-2-(difluoromethyl)-1-{[(1-methylcyclopropyl)sulfonyl]carbamoyl}cyclopropyl]-9-ethyl-18,18-difluoro-14-methoxy-3,6-dioxo-1,1a,3,4,5,6,9,10,18,19,20,21,22,22a-tetradecahydro-8H-7,10-methanocyclopropa[18,19][1,10,3,6]dioxadiazacyclononadecino[11,12-b]quinoxaline-8-carboxamide], the EC50 in [1] (Hepatitis C virus) turned out to be 6.1 nM; in test [2] (Hepatitis C virus), 15 nM; in [3] (Hepatitis C virus), 2.9 nM; in test [4] (setting [12]), 4.3 nM; in test [6] (Hepatitis C virus) it was 3.7 nM; in [7] (Hepatitis C virus), 1.7 nM. In addition, the EC50 in test [8] (Hepatitis C virus) was determined as 3.9 nM; in test [9] (Hepatitis C virus) it was 2.9 nM; in test [10] (setting [13]), 2.8 nM; in [11] (Hepatitis C virus), 3.3 nM. Besides, the Ki in [5] came out at 0.06 nM.

On to `COc1ccc2nc3c(nc2c1)O[C@H]1CN(C(=O)[C@H](C(C)(C)C)NC(=O)O[C@]2(C)C[C@H]2CCCCC3)[C@H](C(=O)N[C@]2(C(=O)NS(=O)(=O)C3(C)CC3)C[C@H]2C(F)F)[C@@H]1C` [Example 44, (1aR,5S,8S,9S,10R,22aR)-5-tert-butyl-N-[(1R,2R)-2-(difluoromethyl)-1-{[(1-methylcyclopropyl)sulfonyl]carbamoyl}cyclopropyl]-14-methoxy-1a,9-dimethyl-3,6-dioxo-1,1a,3,4,5,6,9,10,18,19,20,21,22,22a-tetradecahydro-8H-7,10-methanocyclopropa[18,19][1,10,3,6]dioxadiazacyclononadecino[11,12-b]quinoxaline-8-carboxamide], for which the EC50 was determined as 7 nM in [1] (Hepatitis C virus); 53 nM in test [2] (Hepatitis C virus); 2.2 nM in [3] (Hepatitis C virus); 15 nM in test [4] (setting [12]); 2.9 nM in test [6] (Hepatitis C virus); 1.4 nM in test [7] (Hepatitis C virus). Besides, the EC50 in [8] (Hepatitis C virus) worked out at 3.1 nM; in test [9] (Hepatitis C virus), 2.4 nM; in test [10] (setting [13]), 4 nM; in test [11] (Hepatitis C virus), 2.1 nM. In addition, in test [5], affinity was put at a Ki of 0.08 nM.

Regarding “(1aR,5S,8S,9S,10R,22aR)-5-tert-butyl-14-chloro-N-[(1R,2R)-2-(difluoromethyl)-1-{[(1-methylcyclopropyl)sulfonyl]carbamoyl}cyclopropyl]-18,18-difluoro-9-methyl-3,6-dioxo-1,1a,3,4,5,6,9,10,18,19,20,21,22,22a-tetradecahydro-8H-7,10-methanocyclopropa[18,19][3,6]dioxadiazacyclononadecino[11,12-b]quinoxaline-8-carboxamide [Example 88]”, the EC50 in [1] was 35 nM; in test [2] (stable replicon genotype 3a, Renilla luciferase), 105 nM; in [3] (stable replicon genotype 4a, Renilla luciferase), 4.1 nM; in test [4] (transient-transfected replicon genotype 1b D168A resistant variant, read-out: EC50 1B D168A) it was 24 nM; in test [6], 2.7 nM; in [7], 5.5 nM. For the same compound, the EC50 came to 9.3 nM in test [8]; 5 nM in test [9]; 14 nM in [10] (transient-transfected replicon genotype 1a R155K resistant variant, read-out: EC50 1A R155K); 4.6 nM in [11]. The Ki in test [5] was 0.29 nM.

In the case of `CC[C@@H]1[C@@H]2CN(C(=O)[C@H](C(C)(C)C)NC(=O)O[C@]3(C)CCC[C@H]3CCCCCc3nc4ccc(OC)cc4nc3O2)[C@@H]1C(=O)N[C@]1(C(=O)NS(=O)(=O)C2(C)CC2)C[C@H]1C(F)F` [Example 39], the EC50 in test [1] (Hepatitis C virus) stood at 89 nM; in [2] (Hepatitis C virus), 321 nM; in [3] (Hepatitis C virus), 26 nM; in test [4] (setting [12]), 105 nM; in test [6] (Hepatitis C virus), 41 nM; in [7] (Hepatitis C virus), 16 nM. Moreover, the EC50 was determined as 34 nM in test [8] (Hepatitis C virus), 23 nM in [9] (Hepatitis C virus), 63 nM in [10] (setting [13]) and 39 nM in [11] (Hepatitis C virus). In [5], the Ki turned out to be 0.2 nM.

In the case of `CC[C@@H]1[C@@H]2CN(C(=O)[C@H](C(C)(C)C)NC(=O)O[C@]3(C)C[C@H]3CCCCC(F)(F)c3nc4ccc(OC)cc4nc3O2)[C@@H]1C(=O)N[C@]1(C(=O)NS(=O)(=O)C2(C)CC2)C[C@H]1C(F)F` [Example 63, (1aR,5S,8S,9S,10R,22aR)-5-tert-butyl-N-[(1R,2R)-2-(difluoromethyl)-1-{[(1-methylcyclopropyl)sulfonyl]carbamoyl}cyclopropyl]-9-ethyl-18,18-difluoro-14-methoxy-1a-methyl-3,6-dioxo-1,1a,3,4,5,6,9,10,18,19,20,21,22,22a-tetradecahydro-8H-7,10-methanocyclopropa[18,19][1,10,3,6]dioxadiazacyclononadecino[11,12-b]quinoxaline-8-carboxamide], the EC50 in test [1] (Hepatitis C virus) turned out to be 6.9 nM; in [2] (Hepatitis C virus), 11 nM; in test [3] (Hepatitis C virus), 3.2 nM; in test [4] (setting [12]), 3.4 nM; in test [6] (Hepatitis C virus), 3.2 nM; in [7] (Hepatitis C virus), 2.1 nM. Also, the EC50 in test [8] (Hepatitis C virus) worked out at 4.2 nM; in test [9] (Hepatitis C virus), 4.1 nM; in test [10] (setting [13]) it was 4 nM; in test [11] (Hepatitis C virus), 2.9 nM. In addition, in test [5], the Ki worked out at 0.01 nM.
